From patent US8889874B2, “Imidazolone-chalcone derivatives as potential anticancer agent and process for the preparation thereof” (Council of Scientific and Industrial Research, priority 2010, dated 2014)
Where two headings read alike, the source gives them in different places.

Experiments:
Assay type in all cases: cell-based, human
[1] = tested on: Ovarian cancer cell lines; assay: NCI anticancer screen, SRB assay, panel summary; details: Homo sapiens
Protocol: (§1) Some of biological activity studies were carried out at the National Cancer Institute (NCI), Maryland, USA.
(§2) The compounds were evaluated for anticancer activity against fifty three human cancer cells derived from nine cancer types (leukemia cell line, non-small-cell lung cell line, colon cell line, CNS cell line, melanoma cell line, ovarian cell line, prostate cell line, and breast cancer cell line) as shown in Table 1. For each compound, dose response curves for each cell line were measured at a minimum of five concentrations at 10 fold dilutions. A protocol of 48 h continuous drug exposure was used and a sulforhodamine B (SRB) protein assay was used to estimate cell viability or growth.

[2] = tested on: Leukemia cancer cell lines; assay: NCI anticancer screen, SRB assay, panel summary; details: Homo sapiens
Protocol: as §1, §2

Renal cancer cell lines = assay: NCI anticancer screen, SRB assay, panel summary; details: Homo sapiens
Protocol: as §1, §2

Breast cancer cell lines = assay: NCI anticancer screen, SRB assay, panel summary; details: Homo sapiens
Protocol: as §1, §2

[3] = tested on: Melanoma cancer cell lines; assay: NCI anticancer screen, SRB assay, panel summary; details: for GI50: Homo sapiens
Protocol: as §1, §2

Colon cancer cell lines = assay: NCI anticancer screen, SRB assay, panel summary; details: for GI50: Homo sapiens
Protocol: as §1, §2

[4] = tested on: Non-small cell lung cancer cell lines; assay: NCI anticancer screen, SRB assay, panel summary; details: Homo sapiens
Protocol: as §1, §2

CNS cancer cell lines = assay: NCI anticancer screen, SRB assay, panel summary; details: for GI50: Homo sapiens
Protocol: as §1, §2

BT-549 (breast) = assay: NCI anticancer screen, SRB assay, 48 h; details: Homo sapiens
Protocol: as §1, §2

HCT-15 (colon) = assay: NCI anticancer screen, SRB assay, 48 h; details: Homo sapiens
Protocol: as §1, §2

HCC-2998 (colon) = assay: NCI anticancer screen, SRB assay, 48 h; details: Homo sapiens
Protocol: as §1, §2

HS 578T (breast) = assay: NCI anticancer screen, SRB assay, 48 h; details: Homo sapiens
Protocol: as §1, §2

[5] = tested on: K-562 (leukemia cell line); assay: NCI anticancer screen, SRB assay, 48 h; details: Homo sapiens
Protocol: as §1, §2

[6] = tested on: HOP-92 (non-small cell lung); assay: NCI anticancer screen, SRB assay, 48 h; details: Homo sapiens
Protocol: as §1, §2

SF-295 (CNS) = assay: NCI anticancer screen, SRB assay, 48 h; details: Homo sapiens
Protocol: as §1, §2

[7] = tested on: NCI-H460 (non-small cell lung); assay: NCI anticancer screen, SRB assay, 48 h; details: Homo sapiens
Protocol: as §1, §2

SN12C (renal) = assay: NCI anticancer screen, SRB assay, 48 h; details: Homo sapiens, SN12C
Protocol: as §1, §2

U251 (CNS) = assay: NCI anticancer screen, SRB assay, 48 h; details: Homo sapiens
Protocol: as §1, §2

MCF7 (breast) = assay: NCI anticancer screen, SRB assay, 48 h; details: Homo sapiens
Protocol: as §1, §2

MDA-MB-435 (melanoma) = assay: NCI anticancer screen, SRB assay, 48 h; details: Homo sapiens
Protocol: as §1, §2

SK-MEL-5 (melanoma) = assay: NCI anticancer screen, SRB assay, 48 h; details: Homo sapiens
Protocol: as §1, §2

LOX IMVI (melanoma) = assay: NCI anticancer screen, SRB assay, 48 h; details: Homo sapiens
Protocol: as §1, §2

OVCAR-5 (ovarian) = assay: NCI anticancer screen, SRB assay, 48 h; details: Homo sapiens
Protocol: as §1, §2

SF-539 (CNS) = assay: NCI anticancer screen, SRB assay, 48 h; details: Homo sapiens
Protocol: as §1, §2

786-0 (renal) = assay: NCI anticancer screen, SRB assay, 48 h; details: Homo sapiens
Protocol: as §1, §2

SW-620 (colon) = assay: NCI anticancer screen, SRB assay, 48 h; details: Homo sapiens
Protocol: as §1, §2

A498 (renal) = assay: NCI anticancer screen, SRB assay, 48 h; details: Homo sapiens
Protocol: as §1, §2

TK-10 (renal) = assay: NCI anticancer screen, SRB assay, 48 h; details: Homo sapiens
Protocol: as §1, §2

SF-268 (CNS) = assay: NCI anticancer screen, SRB assay, 48 h; details: Homo sapiens
Protocol: as §1, §2

MDA-MB-231/ATCC (breast) = assay: NCI anticancer screen, SRB assay, 48 h; details: Homo sapiens
Protocol: as §1, §2

[8] = 48 h exposure, SRB, read-out: GI50
[9] = read-out: pGI50 (-log of molar concentration causing 50% inhibition of net cell growth) (converted)

Structure (SMILES): O=C(/C=C/c1cccc(O)c1)c1cccc(-n2cc(-c3ccc(Cl)cc3)[nH]c2=O)c1 [4f, 4-(4-chlorophenyl)-1-3-[(E)-3-(3-hydroxyphenyl)-2-propenoyl]phenyl-2,3-dihydro-1H-2-imidazolone]
- GI50 ([1]; Ovarian panel, log of concentration in mol/L causing 50% inhibition of net cell growth, read-out: mean graph midpoint (MG_MID) of Log10 GI50 (converted)): 2040 nM
- LC50 ([1]; Ovarian panel, log of concentration leading to 50% net cell death, read-out: mean graph midpoint (MG_MID) of Log10 LC50 (converted)): 46800 nM
- GI50 ([1]; six ovarian cancer cell lines, exposure at least 48 hrs, read-out: GI50, range over the panel): 990 to 4210 nM
- GI50 ([2]; Leukemia panel, log of concentration in mol/L causing 50% inhibition of net cell growth, read-out: mean graph midpoint (MG_MID) of Log10 GI50 (converted)): 794 nM
- LC50 ([2]; Leukemia panel, log of concentration leading to 50% net cell death, read-out: mean graph midpoint (MG_MID) of Log10 LC50 (converted)): 87100 nM
- GI50 ([2]; two leukemia cancer cell lines (RPMI-8226 and K-562), exposure at least 48 hrs, read-out: GI50, range over the panel): 400 to 1550 nM
- GI50 (Renal cancer cell lines; Renal panel, log of concentration in mol/L causing 50% inhibition of net cell growth, read-out: mean graph midpoint (MG_MID) of Log10 GI50 (converted)): 1780 nM
- LC50 (Renal cancer cell lines; Renal panel, log of concentration leading to 50% net cell death, read-out: mean graph midpoint (MG_MID) of Log10 LC50 (converted)): 27500 nM
- GI50 (Renal cancer cell lines; eight renal cancer cell lines, exposure at least 48 hrs, read-out: GI50, range over the panel): 550 to 3710 nM
- GI50 (Breast cancer cell lines; Breast panel, log of concentration in mol/L causing 50% inhibition of net cell growth, read-out: mean graph midpoint (MG_MID) of Log10 GI50 (converted)): 2190 nM
- LC50 (Breast cancer cell lines; Breast panel, log of concentration leading to 50% net cell death, read-out: mean graph midpoint (MG_MID) of Log10 LC50 (converted)): 63100 nM
- GI50 (Breast cancer cell lines; five breast cancer cell lines, exposure at least 48 hrs, read-out: GI50, range over the panel): 1290 to 4000 nM
- GI50 ([3]; Melanoma panel, log of concentration in mol/L causing 50% inhibition of net cell growth, read-out: mean graph midpoint (MG_MID) of Log10 GI50 (converted)): 2190 nM
- GI50 ([3]; nine melanoma cancer cell lines, exposure at least 48 hrs, read-out: GI50, range over the panel): 1530 to 4070 nM
- mean graph midpoint (MG_MID) of Log10 LC50 ([3]; Melanoma panel, log of concentration leading to 50% net cell death): 4.55
- mean graph midpoint (MG_MID) of Log10 LC50 (Colon cancer cell lines; Colon panel, log of concentration leading to 50% net cell death): 4.68
- GI50 (Colon cancer cell lines; Colon panel, log of concentration in mol/L causing 50% inhibition of net cell growth, read-out: mean graph midpoint (MG_MID) of Log10 GI50 (converted)): 2340 nM
- GI50 (Colon cancer cell lines; seven colon cancer cell lines, exposure at least 48 hrs, read-out: GI50, range over the panel): 1230 to 13700 nM
- GI50 ([4]; Non-small cell lung panel, log of concentration in mol/L causing 50% inhibition of net cell growth, read-out: mean graph midpoint (MG_MID) of Log10 GI50 (converted)): 2340 nM
- LC50 ([4]; Non-small cell lung panel, log of concentration leading to 50% net cell death, read-out: mean graph midpoint (MG_MID) of Log10 LC50 (converted)): 57500 nM
- GI50 ([4]; nine non-small cell lung cancer cell lines, exposure at least 48 hrs, read-out: GI50, range over the panel): 1600 to 3550 nM
- mean graph midpoint (MG_MID) of Log10 LC50 (CNS cancer cell lines; CNS panel, log of concentration leading to 50% net cell death): 4.87
- GI50 (CNS cancer cell lines; CNS panel, log of concentration in mol/L causing 50% inhibition of net cell growth, read-out: mean graph midpoint (MG_MID) of Log10 GI50 (converted)): 1450 nM
- GI50 (CNS cancer cell lines; six CNS cancer cell lines, exposure at least 48 hrs, read-out: GI50, range over the panel): 580 to 1920 nM
- GI50 (BT-549 (breast); [8]): 1450 nM
- GI50 (BT-549 (breast); [9]): 1450 nM
- GI50 (HCT-15 (colon); [8]): 2330 nM
- GI50 (HCT-15 (colon); [9]): 2340 nM
- GI50 (HCC-2998 (colon); [8]): 13700 nM
- GI50 (HCC-2998 (colon); [9]): 13800 nM
- GI50 (HS 578T (breast); [8]): 4000 nM
- GI50 (HS 578T (breast); [9]): 3980 nM
- GI50 ([5]; K562, 48 h exposure, SRB, read-out: GI50): 400 nM
- GI50 ([5]; K562, read-out: pGI50 (-log of molar concentration causing 50% inhibition of net cell growth) (converted)): 398 nM
- GI50 [6, 8]: 1600 nM
- GI50 [6, 9]: 1580 nM
- GI50 (SF-295 (CNS); [8]): 1790 nM
- GI50 (SF-295 (CNS); [9]): 1780 nM
- GI50 [7, 8]: 2410 nM
- GI50 [7, 9]: 2400 nM
- GI50 (SN12C (renal); SN 12C, read-out: pGI50 (-log of molar concentration causing 50% inhibition of net cell growth) (converted)): 1950 nM
- GI50 (SN12C (renal); [8]): 1950 nM
- GI50 (U251 (CNS); U-251, 48 h exposure, SRB, read-out: GI50): 580 nM
- GI50 (U251 (CNS); U-251, read-out: pGI50 (-log of molar concentration causing 50% inhibition of net cell growth) (converted)): 575 nM
- GI50 (MCF7 (breast); [8]): 1270 nM
- GI50 (MCF7 (breast); [9]): 1290 nM
- GI50 (MDA-MB-435 (melanoma); [8]): 2060 nM
- GI50 (MDA-MB-435 (melanoma); [9]): 2040 nM
- GI50 (SK-MEL-5 (melanoma); [8]): 1530 nM
- GI50 (SK-MEL-5 (melanoma); [9]): 1510 nM
- GI50 (LOX IMVI (melanoma); [8]): 1570 nM
- GI50 (LOX IMVI (melanoma); [9]): 1580 nM
- GI50 (OVCAR-5 (ovarian); [8]): 2190 nM
- GI50 (OVCAR-5 (ovarian); [9]): 2190 nM
- GI50 (SF-539 (CNS); [8]): 1680 nM
- GI50 (SF-539 (CNS); [9]): 1700 nM
- GI50 (786-0 (renal); [8]): 1570 nM
- GI50 (786-0 (renal); [9]): 1580 nM
- GI50 (SW-620 (colon); [8]): 1620 nM
- GI50 (SW-620 (colon); [9]): 1620 nM
- GI50 (A498 (renal); [8]): 3710 nM
- GI50 (A498 (renal); [9]): 3720 nM
- GI50 (TK-10 (renal); [8]): 2830 nM
- GI50 (TK-10 (renal); [9]): 2820 nM
- GI50 (SF-268 (CNS); [8]): 1780 nM
- GI50 (SF-268 (CNS); [9]): 1780 nM
- GI50 (MDA-MB-231/ATCC (breast); [8]): 3350 nM
- GI50 (MDA-MB-231/ATCC (breast); [9]): 3390 nM
